Biological target: AMPA receptors
Experiment: Displacement of 3H-AMPA binding, rat forebrain membranes
Details: read-out: IC₅₀ (displacement of ³H-AMPA binding)
Experimental: The ability of test compounds to displace ³H-AMPA binding to rat forebrain membranes was determined by the method of Honore et al., Neurosci. Lett., 1985, 54, 27.

`CCOC(=O)C1C(=O)Nc2cc([N+](=O)[O-])c([N+](=O)[O-])cc2C1=O` (stereo not shown) [Example 50, Ethyl 6,7-Dinitro-2,4-dioxo-3-(1,2,3,4-tetrahydroquinoline)carboxylate] was tested, and the IC50 was < 50 µM.

— patent EP0459561B1, “Dioxo-tetrahydroquinoline derivatives” (MERCK SHARP & DOHME LTD., priority 1990, dated 1991)
